Assay results from US20160115540A1, “PRODRUGS AND DRUGS” (Biogen MA Inc., priority 2013, published 2016).
Structures can show the parent of a compound that is named as a salt.

System: kidney
Experiment: Transcriptional profiling on Affymetrix GeneChips, single dose, naïve mice: kidney
Format: in vivo, C57BL/6 mice
Settings: for Number of differentially expressed genes identified: Kidney: Naïve, Single Dose, 100 mpk, vs Vehicle
Protocol: Treated mice were sacrificed at 2, 7, or 12 hours. Tissues (liver, spleen, kidney, jejunum, cortex, hippocampus, striatum and whole blood) were collected and analyzed by transcriptional profiling on mouse Affymetrix GeneChips.
Tissues (liver, spleen, kidney, jejunum, cortex, hippocampus, striatum and whole blood) were collected and analyzed by transcriptional profiling on mouse Affymetrix GeneChips.
Animals were exposed to CO2 and whole blood collected via cardiac puncture. Two 100 μl aliquots of whole blood were collected in 1.5 mL microcentrifuge tubes and snap frozen in liquid nitrogen. Peripheral (liver, spleen, kidney and jejunum) and CNS brain (cerebellum, hippocampus, striatum and cortex) tissues were harvested and snap frozen in liquid nitrogen, with special care taken to collect tissues of similar size and from the same location. All samples were stored at −80° C. until RNA extraction was conducted.
For RNA preparation, frozen tissues were placed in 2 mL RNAse-free 96-well blocks with 1.5 mL QIAzol Lysis Reagent (QIAgen) and a 3.2 mm stainless steel bead (BioSpec Products, Bartlesville, Okla.). Tissues were disrupted for four cycles of 45 seconds in a Mini-Beadbeater (Biospec Products). RNA was extracted in chloroform and the aqueous phase was mixed with an equal volume of 70% ethanol. Extracted RNA was applied to RNeasy 96 plates and purified by the spin method according to the manufacturer's protocol (RNeasy 96 Universal Tissue Protocol, QIAgen, Hilden Germany).
Automated sample amplifications and biotin labelings were carried out using the NuGEN Ovation RNA Amplification system V2 (Cat #3100), Ovation WB reagent (Cat #1300) and Encore Biotin module (Cat #4200) (NuGEN Technologies, Inc, San Carlos, Calif.) according to manufacturer's recommendations using an Arrayplex automated liquid handler (Beckman Coulter, Indianapolis, Ind.). Two micrograms of biotin labeled sscDNA probe were hybridized to Affymetrix GeneChip Affymetrix HT_MG-430_PM plate arrays with modified conditions as described in Allaire et al. Washing and staining of the hybridized arrays were completed as described in the GeneChip Expression analysis technical manual for HT plate arrays using the Genechip® Array Station (Affymetrix, Santa Clara, Calif.) with modifications as described in Allaire et al. The processed GeneChip® plate arrays were scanned using GeneTitan scanner (Affymetrix, Santa Clara, Calif.).
Affymetrix scans were subject to quality control (QC) measures. These tests included a visual inspection of the distribution of raw signal intensities and an assessment of RNA degradation, relative log expression (RLE), and normalized unsealed standard error (NUSE). All sample scans that passed these QC metrics were included in the analysis.
All CEL files were subjected to GC-content-based Robust Multi-array Average (GCRMA) normalization (version 2.20.0) (Irizarry R A, et al. Nucleic Acids Res 2003; 31:e15; Li C, et al. Genome Biol 2001; 2:[…]0032). Expression levels were log (base 2) transformed.
All calculations and analyses were carried out using R (version 2.11.1) and Bioconductor computational tools (Gentleman R. Springer Science+Business Media 2005).

COC(=O)/C=C/C(=O)O [MMF, monomethyl fumarate]
FC Hfe 1422645_PM_at (100MMF-vs-Veh, 12 h): 1.56
FC Ikbkg 1421209_PM_s_at (100MMF-vs-Veh, 12 h): 1.57
FC Mep1b 1418215_PM_at (100MMF-vs-Veh, 12 h): −1.55
FC Mthfd2 1419253_PM_at (100MMF-vs-Veh, 12 h): 1.65
FC Myo5a 1419754_PM_at (100MMF-vs-Veh, 12 h): −3.09
FC Nek6 1423596_PM_at (100MMF-vs-Veh, 12 h): 1.69
FC Pnkd 1418746_PM_at (100MMF-vs-Veh, 12 h): 1.51
FC Slc6a4 1417150_PM_at (100MMF-vs-Veh, 12 h): 1.58
FC Slc38a3 1418706_PM_at (100MMF-vs-Veh, 12 h): 1.81
FC Smcp 1418358_PM_at (100MMF-vs-Veh, 12 h): −2.49
FC Srxn1 (1419942_PM_at) (100MMF-vs-Veh, 12 h): 1.96
FC Tfrc 1422966_PM_a_at (100MMF-vs-Veh, 12 h): 1.51
FC Tiam2 1423186_PM_at (100MMF-vs-Veh, 12 h): 1.84
FC Txnrd1 1421529_PM_a_at (100MMF-vs-Veh, 12 h): 1.55
Number of genes, DMF Only / MMF Only (Kidney): 94
Asns (1451095_PM_at) differential expression (Kidney, 2 hr): 2.46
Cbr3 (1427912_PM_at) differential expression (Kidney, 2 hr): 2.96
Gdf15 (1418949_PM_at) differential expression (Kidney, 2 hr): 5.50
Maf (probe set 1437473_PM_at) differential expression (Kidney, 2 hr): −1.56
Mthfd2 (1419253_PM_at) differential expression (Kidney, 2 hr): 2.03
Number of differentially expressed genes identified: Kidney (2 h after last dosing): 274
Number of differentially expressed genes identified: Kidney (7 h after last dosing): 156
Number of differentially expressed genes identified: Kidney (12 h after last dosing): 151
Asns (1451095_PM_at) differential expression (kidney, 7 hr): 2.13
Cbr1 (probe set 1460196_PM_at) differential expression (kidney, 7 hr): 1.58
Cbr3 (1427912_PM_at) differential expression (kidney, 7 hr): 9.54
Cul9 (probe set 1439866_PM_at) differential expression (kidney, 7 hr): −1.52
Dbp (probe set 1418174_PM_at) differential expression (kidney, 7 hr): −1.73
Fam107a (probe set 1435918_PM_at) differential expression (kidney, 7 hr): −1.77
Frem2 (probe set 1457038_PM_at) differential expression (kidney, 7 hr): −1.66
Gdf15 (1418949_PM_at) differential expression (kidney, 7 hr): 1.98
Gpr135 (probe set 1441944_PM_s_at) differential expression (kidney, 7 hr): 1.66
Ido2 (probe set 1425778_PM_at) differential expression (kidney, 7 hr): −1.52
Il18 (probe set 1417932_PM_at) differential expression (kidney, 7 hr): −1.52
Kcnh1 (probe set 1435994_PM_at) differential expression (kidney, 7 hr): −1.61
Kif20b (probe set 1439695_PM_a_at) differential expression (kidney, 7 hr): −2.61
Mthfd2 (1419253_PM_at) differential expression (kidney, 7 hr): 1.89
Nmral1 (probe set 1430530_PM_s_at) differential expression (kidney, 7 hr): −1.52
Ppm1e (probe set 1434990_PM_at) differential expression (kidney, 7 hr): −1.53
Rab38 (probe set 1417700_PM_at) differential expression (kidney, 7 hr): −1.57
Slc48a1 (probe set 1450410_PM_a_at) differential expression (kidney, 7 hr): 1.58
Sphk2 (probe set 1426230_PM_at) differential expression (kidney, 7 hr): −1.54
Tmem86a (probe set 1428758_PM_at) differential expression (kidney, 7 hr): −1.56
Wdr90 (probe set 1426767_PM_at) differential expression (kidney, 7 hr): −1.58
Acot1 (probe set 1449065_PM_at) differential expression (kidney, 12 hr): 1.59
Acot1 /// Acot2 (probe set 1422997_PM_s_at) differential expression (kidney, 12 hr): 1.51
Acsm2 (probe set 1427224_PM_at) differential expression (kidney, 12 hr): −1.52
Aldh1a1 (probe set 1416468_PM_at) differential expression (kidney, 12 hr): 2.21
Arhgap26 (probe set 1440688_PM_at) differential expression (kidney, 12 hr): −1.57
Asns (1451095_PM_at) differential expression (kidney, 12 hr): 2.49
Atp11a (probe set 1421167_PM_at) differential expression (kidney, 12 hr): −1.62
B4galt5 (probe set 1433617_PM_s_at) differential expression (kidney, 12 hr): −1.51
C8a (probe set 1428012_PM_at) differential expression (kidney, 12 hr): −1.51
Cbr1 (probe set 1460196_PM_at) differential expression (kidney, 12 hr): 2.10
Cbr3 (1427912_PM_at) differential expression (kidney, 12 hr): 7.02
Cldn1 (probe set 1437932_PM_a_at) differential expression (kidney, 12 hr): 1.57
Dio3os (probe set 1435121_PM_at) differential expression (kidney, 12 hr): 1.60
Dpys (probe set 1436291_PM_a_at) differential expression (kidney, 12 hr): 1.51
Ep400 (probe set 1449610_PM_at) differential expression (kidney, 12 hr): −1.67
Fga (probe set 1424279_PM_at) differential expression (kidney, 12 hr): 1.79
Gbe1 (probe set 1420654_PM_a_at) differential expression (kidney, 12 hr): 1.51
Gdf15 (1418949_PM_at) differential expression (kidney, 12 hr): 2.01
Gpr19 (probe set 1421756_PM_a_at) differential expression (kidney, 12 hr): 1.50
Gpr135 (probe set 1441944_PM_s_at) differential expression (kidney, 12 hr): 1.59
Gpt (probe set 1426502_PM_s_at) differential expression (kidney, 12 hr): 1.51
Gsta2 (probe set 1421040_PM_a_at) differential expression (kidney, 12 hr): 1.61
Gstp1 (probe set 1449575_PM_a_at) differential expression (kidney, 12 hr): 1.54
Kif20b (probe set 1439695_PM_a_at) differential expression (kidney, 12 hr): −2.85
Klk1b21 (probe set 1451607_PM_at) differential expression (kidney, 12 hr): 1.57
Maf (probe set 1437473_PM_at) differential expression (kidney, 12 hr): 1.53
Mthfd2 (1419253_PM_at) differential expression (kidney, 12 hr): 1.65
Nek6 (probe set 1423596_PM_at) differential expression (kidney, 12 hr): 1.69
Nfia (probe set 1446742_PM_at) differential expression (kidney, 12 hr): −1.74
Orc4 (probe set 1431172_PM_at) differential expression (kidney, 12 hr): 1.50
Pigl (probe set 1440965_PM_at) differential expression (kidney, 12 hr): 1.52
Pnkd (probe set 1418746_PM_at) differential expression (kidney, 12 hr): 1.51
Rcor3 (probe set 1428343_PM_at) differential expression (kidney, 12 hr): −1.51
Reep6 (probe set 1430128_PM_a_at) differential expression (kidney, 12 hr): 1.51
Slc5a3 (probe set 1440227_PM_at) differential expression (kidney, 12 hr): −1.50
Slc6a4 (probe set 1417150_PM_at) differential expression (kidney, 12 hr): 1.58
Slc8a1 (probe set 1437675_PM_at) differential expression (kidney, 12 hr): −1.86
Slc38a3 (probe set 1418706_PM_at) differential expression (kidney, 12 hr): 1.81
Slc39a8 (probe set 1448482_PM_at) differential expression (kidney, 12 hr): −1.55
Slc48a1 (probe set 1450410_PM_a_at) differential expression (kidney, 12 hr): 1.53
Slco2a1 (probe set 1444242_PM_at) differential expression (kidney, 12 hr): 1.63
Smarca2 (probe set 1452333_PM_at) differential expression (kidney, 12 hr): −1.60
Tfrc (probe set 1422966_PM_a_at) differential expression (kidney, 12 hr): 1.51
Tmie (probe set 1443964_PM_at) differential expression (kidney, 12 hr): 1.65
Trim16 (probe set 1460629_PM_at) differential expression (kidney, 12 hr): 1.51
FC 1200003I10Rik /// 1200015M12Rik /// A130040M12Rik /// E430024C06Rik 1427932_PM_s_at (kidney, 100MMF-vs-Veh, 12 h): 1.54
FC 1200016E24Rik (1452418_PM_at) (kidney, 100MMF-vs-Veh, 12 h): 1.50
FC 1300002K09Rik 1453234_PM_at (kidney, 100MMF-vs-Veh, 12 h): 1.88
FC 1441333_PM_at (no gene symbol) (kidney, 100MMF-vs-Veh, 12 h): −2.46
FC 1441971_PM_at (no gene symbol) (kidney, 100MMF-vs-Veh, 12 h): 1.51
FC 1444920_PM_at (no gene symbol) (kidney, 100MMF-vs-Veh, 12 h): −1.56
FC 1447396_PM_at (no gene symbol) (kidney, 100MMF-vs-Veh, 12 h): −1.52
FC 1455722_PM_at (no gene symbol) (kidney, 100MMF-vs-Veh, 12 h): −1.53
FC 1458599_PM_at (no gene symbol) (kidney, 100MMF-vs-Veh, 12 h): 1.57
FC 1459091_PM_at (no gene symbol) (kidney, 100MMF-vs-Veh, 12 h): 2.38
FC 2010003K11Rik (1424626_PM_at) (kidney, 100MMF-vs-Veh, 12 h): 1.65
FC 2310043L19Rik (1440008_PM_at) (kidney, 100MMF-vs-Veh, 12 h): 1.86
FC 3110009E18Rik (1428023_PM_at) (kidney, 100MMF-vs-Veh, 12 h): 1.58
FC 4933427G17Rik 1431905_PM_s_at (kidney, 100MMF-vs-Veh, 12 h): 1.59
